This is an account of results in patent US8420640B2, “Methods of treating amyloid disease using analogs of 1-(4-nitrophenyl) piperazine” (Treventis Corporation, priority 2008, dated 2013).

The target of one test is T1, Aβ40 (Homo sapiens, UniProt P05067).
T1 construct: Compounds Showing Activity Observed in a ThT Functional Aβ 1-40 Aggregation Assay
Put plainly: ThT functional Aβ 1-40 aggregation assay. It counts as biochemical. The conditions noted are these: for IC50: 20 μM Aβ, 20 mM Tris pH 7.4, 150 mM NaCl, 1% DMSO, 37° C.; for Ratio: potency with respect to the compound of Example 7, 1=potency of that compound. As for the experimental part: Aβ40 (1.0 mg) was pre-treated in a 1.5 mL microfuge tube with HFIP (1 mL) and sonicated for 20 min to disassemble any pre-formed Aβ aggregates. The HFIP was removed with a stream of argon and the Aβ dissolved in Tris base (5.8 mL, 20 mM, pH ˜10). The pH was adjusted to 7.4 with concentrated HCl (˜10 μL) and the solution filtered using a syringe filter (0.2 μm) before being used.
(§1) The kinetic ThT assay for Aβ aggregation is similar to that of Chalifour et al (Chalifour et al, 2003, J. Biol. Chem. 278:34874-81). Briefly, pre-treated Aβ40 (40 μM in 20 mM Tris, pH 7.4), was diluted with an equal volume of 8 μM ThT in Tris (20 mM, pH 7.4, 300 mM NaCl). Aliquots of Aβ/ThT (200 μL) were added to wells of a black polystyrene 96-well plate, followed by 2 μL of a compound in DMSO (variable concentration), or DMSO alone (controls). Incubations were performed in triplicate and were taken to contain 20 μM Aβ, various concentration of compound in 20 mM Tris, pH 7.4, 150 mM NaCl, 1% DMSO. Plates were covered with clear polystyrene lids and incubated at 37° C. in a Tecan Genios microplate reader. Fluorescence readings (λex=450 nm, λem=480 nm) were taken every 15 min., after first shaking at high intensity for 15 s and allowing to settle for 10 s before each reading. Active compounds attenuated the increase in fluorescence over time that occurred in controls. By repeating this procedure over several concentrations, a mean inhibitory concentration (IC50) was measured, as given in the table below. The column “A-syn” represents a similar procedure measuring inhibition of alpha-synuclein aggregation. The column “ratio” is a reproducible assessment of potency with respect to the compound of Example 7, in which 1=potency of that compound: […]

Test [1] deals with T2, alpha-synuclein (Homo sapiens, UniProt P37840). Put plainly: alpha-synuclein aggregation inhibition (procedure similar to the ThT assay). The class given is biochemical. The following applies: inhibition of alpha-synuclein aggregation; read-out: A-syn (IC50/μM). How it is done:
as §1

In another test the test system is amyloid. Put plainly: circular dichroism scans of amyloid with compound, T=0 to 168 hr (FIGS. 3-6). The following applies: scans at T=0, 24 hr, 96 hr, 120 hr. On the technique in general: Circular dichroism is widely used to follow secondary structure.
The target in another test is beta-amyloid (Homo sapiens, UniProt P05067). The following applies: cited from earlier work.
A further test deals with tau protein. Put plainly: tau protein aggregation over time (FIG. 1). It counts as biochemical. The conditions noted are these: tau protein 4 μM; compound at 10 μM.
Test [2] addresses T2, alpha-synuclein. Put plainly: alpha-synuclein aggregation inhibition (procedure similar to the ThT assay). The following applies: alpha-synuclein 6 μM. It counts as biochemical.

SMILES strings stand for the structures.

T1 sequence (P05067 672-711 limits assumed): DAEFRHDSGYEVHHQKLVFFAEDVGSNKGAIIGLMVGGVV

Regarding `O=C(O)c1cccc(-c2ccc([N+](=O)[O-])c(NCc3ccccc3)c2)c1` [drawing 139], at Aβ40, the IC50 turned out to be 1.47 µM and the Ratio was 2.85. The IC50 on alpha-synuclein [1] was found to be 8 µM.

As to `CN(C)c1ccc(N2CCN(C(=O)c3ccccc3)CC2)cc1Nc1ccccc1` [drawing 157], on Aβ40, the IC50 turned out to be 3.5 µM and the Ratio amounted to 11. The IC50 on alpha-synuclein [1] was about 7 µM.

With `CCCNc1cc(N2CCN(C(=O)c3ccccc3)CC2)ccc1[N+](=O)[O-]` [drawing 105], at Aβ40, the IC50 stood at 2.5 µM and the Ratio is given as 0.34. In addition, the IC50 on alpha-synuclein [1] was found to be 142 µM.

With `CN(C)c1ccc(N2CCN(C(=O)c3ccccc3)CC2)cc1Nc1ccccc1` [Example 34, (4-(4-(dimethylamino)-3-(phenylamino)phenyl)piperazin-1-yl)(phenyl)methanone], in the test on amyloid, the “circular dichroism: effect on amyloid structure” value (“circular dichroism: effect” below) was “keeps amyloid from entering an aggregated structure”.

On to `O=C(O)c1cccc(-c2ccc([N+](=O)[O-])c(NCc3ccccc3)c2)c1` [Example 54, 3′-(benzylamino)-4′-nitrophenyl-3-carboxylic acid], for which the “circular dichroism: effect” value with amyloid was “keeps amyloid from entering an aggregated structure”.

For the compound `Oc1ccc(C=Cc2cc(O)cc(O)c2)cc1` [resveratrol], the “effective concentration for inhibition of beta-amyloid aggregation” value on beta-amyloid was 5.6 µM.

In general, inhibition refers to how much of the control response was suppressed. A low value points to a response near the control. As to `CN1CCN(c2ccc([N+](=O)[O-])c(NCc3ccccc3)c2)CC1` [Example 4, N-benzyl-5-(4-methylpiperazin-1-yl)-2-nitrobenzenamine], the “ability to inhibit the aggregation of tau protein” value (from here on “ability to inhibit the aggregation”) in the test with tau protein is recorded as “inhibit the aggregation of tau protein”. On alpha-synuclein [2] (compound at 10 μM), the inhibition at 10 µM was 50%. On alpha-synuclein [2] (compound at 50 μM), the “inhibition of aggregation of alpha-synuclein” value is “full inhibition”.

As for `CN(C)c1cc(N2CCN(C(=O)c3ccccc3)CC2)ccc1[N+](=O)[O-]`, on Aβ40, the IC50 was 25 µM and the Ratio is 0.88. Further, the IC50 at alpha-synuclein [1] was determined as 4 µM.

For the compound `O=C(c1ccccc1)N1CCN(c2ccc([N+](=O)[O-])c(NCc3ccccc3)c2)CC1`, at Aβ40, the IC50 was 10 to 20 µM and the Ratio is given as 0.09. At alpha-synuclein [1], the IC50 is 51 µM.

Regarding `CN(c1ccccc1)c1cc(N2CCN(C(=O)c3ccccc3)CC2)ccc1[N+](=O)[O-]`, at Aβ40, the IC50 was determined as 9.64 µM and the Ratio was 0.9. The IC50 at alpha-synuclein [1] came to 5 µM.

`O=C(O)c1cccc(-c2ccc([N+](=O)[O-])c(Nc3ccccc3)c2)c1` [Example 46, 4′-nitro-3′-(phenylamino) biphenyl-3-carboxylic acid]: the “circular dichroism: effect” value with amyloid is “keeps amyloid from entering an aggregated structure”.

Take `CCCNc1cc(N2CCN(C(=O)c3ccccc3)CC2)ccc1[N+](=O)[O-]` [Example 6, (4-(4-nitro-3-(propylamino)phenyl)piperazin-1-yl)(phenyl)methanone]: the “ability to inhibit the aggregation” value with tau protein was “inhibit the aggregation of tau protein”.

For the compound `CN(C)c1cc([N+](=O)[O-])ccc1N1CCN(C(=O)c2ccccc2)CC1` [Example 25, N,N-dimethyl-2-(4-benzoylpiperazin-1-yl)-5-nitrobenzenamine], the “circular dichroism: effect” value in the test on amyloid was “keeps amyloid from entering an aggregated structure”.

Regarding `Nc1ccc(-c2cccc(C(=O)O)c2)cc1Nc1ccccc1`, the IC50 against Aβ40 is 26.6 µM; at alpha-synuclein [1], 45 µM. Moreover, at Aβ40, the Ratio was 2.5.

In the case of `O=C(O)c1cccc(-c2ccc([N+](=O)[O-])c(Nc3ccccc3)c2)c1` [drawing 149], on Aβ40, the IC50 was 9.23 µM and the Ratio is listed as 2.3. Also, the IC50 at alpha-synuclein [1] is 10 µM.

For `CN1CCN(c2ccc([N+](=O)[O-])c(NCc3ccccc3)c2)CC1` [drawing 103], at Aβ40, the IC50 was 9 µM and the Ratio is given as 0.1. For the same compound, the IC50 at alpha-synuclein [1] came out at 11.6 µM.

On to `CN(C)c1cc([N+](=O)[O-])ccc1N1CCN(C(=O)c2ccccc2)CC1` [drawing 150], for which, on Aβ40, the IC50 was determined as 27 µM and the Ratio is reported as 0.8. Further, on alpha-synuclein [1], the IC50 was determined as 15 µM.

`O=C(c1ccccc1)N1CCN(c2ccc([N+](=O)[O-])c(Nc3ccccc3)c2)CC1` [Example 7, (4-(4-nitro-3-(phenylamino)phenyl)piperazin-1-yl)(phenyl)methanone]: at Aβ40, the IC50 is 0.85 µM and the Ratio is on record as 1. In addition, the IC50 at alpha-synuclein [1] was found to be 6.34 µM. Moreover, in the test with tau protein, the “ability to inhibit the aggregation” value is listed as “inhibit the aggregation of tau protein”.
